Patent US7951829B2, “Benzimidazole modulators of VR1” (Janssen Pharmaceutica NV, priority 2006, dated 2011)

Target: T1, hVR1 (Homo sapiens, UniProt Q8NER1)
T1 construct: expressed in transfected cells; host or cells: HEK293
Test: Human VR1 (hVR1) Functional Assay (FLIPR intracellular calcium, capsaicin challenge)
Assay type: cell-based
Conditions: capsaicin 0.030 μM, HEK293 cells expressing hVR1; for inhibition at 1 µM: test concentration 1 μM

T1 sequence (Q8NER1 whole entry): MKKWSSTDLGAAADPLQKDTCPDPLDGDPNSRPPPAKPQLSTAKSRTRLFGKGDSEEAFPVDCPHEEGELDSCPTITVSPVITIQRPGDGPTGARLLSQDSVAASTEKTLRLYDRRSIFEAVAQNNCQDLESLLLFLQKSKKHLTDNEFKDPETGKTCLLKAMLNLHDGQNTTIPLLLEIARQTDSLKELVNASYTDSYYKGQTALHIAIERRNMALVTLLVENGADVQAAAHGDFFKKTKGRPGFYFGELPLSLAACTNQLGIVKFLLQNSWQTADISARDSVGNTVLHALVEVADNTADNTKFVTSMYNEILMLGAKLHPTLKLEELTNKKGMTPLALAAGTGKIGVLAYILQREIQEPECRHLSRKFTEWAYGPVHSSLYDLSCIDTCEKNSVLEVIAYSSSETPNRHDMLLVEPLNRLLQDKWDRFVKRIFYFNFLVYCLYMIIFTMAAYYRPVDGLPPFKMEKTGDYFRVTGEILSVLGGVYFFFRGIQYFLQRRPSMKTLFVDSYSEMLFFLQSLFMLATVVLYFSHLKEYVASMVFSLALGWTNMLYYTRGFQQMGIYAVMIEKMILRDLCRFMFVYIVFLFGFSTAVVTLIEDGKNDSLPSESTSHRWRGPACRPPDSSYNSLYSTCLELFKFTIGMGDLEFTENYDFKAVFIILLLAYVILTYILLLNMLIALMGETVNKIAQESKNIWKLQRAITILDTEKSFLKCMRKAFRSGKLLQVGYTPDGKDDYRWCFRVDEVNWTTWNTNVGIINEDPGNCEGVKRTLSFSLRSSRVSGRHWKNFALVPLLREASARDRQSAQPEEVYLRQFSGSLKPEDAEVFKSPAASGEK

Row | SMILES | IC50 | inhibition at 1 µM
1 | CC(C)(C)c1ccc(/C=C/c2nc3cc(-c4ccccc4CO)ccc3[nH]2)cc1 [Cpd 12, (E)-(2-{2-[2-(4-tert-butyl-phenyl)-vinyl]-1H-benzimidazol-5-yl}-phenyl)-methanol] | 10 nM | 100%
2 | NC(=O)c1ccccc1-c1ccc2[nH]c(/C=C/c3ccc(S(=O)(=O)C(F)(F)F)cc3)nc2c1 [Cpd 44, (E)-2-{2-[2-(4-trifluoromethanesulfonyl-phenyl)-vinyl]-1H-benzimidazol-5-yl}-benzamide] | 300 nM | 95%
3 | O=C(CO)c1ccccc1-c1ccc2[nH]c(/C=C/c3ccc(C(F)(F)F)cc3)nc2c1 [Cpd 311, (E)-2-hydroxy-1-(2-{2-[2-(4-trifluoromethyl-phenyl)-vinyl]-1H-benzimidazol-5-yl}-phenyl)-ethanone] | 54 nM | 99%
4 | NS(=O)(=O)c1ccccc1-c1ccc2[nH]c(/C=C/c3ccc(F)c(C(F)(F)F)c3)nc2c1 [Cpd 369, (E)-2-{2-[2-(4-fluoro-3-trifluoromethyl-phenyl)-vinyl]-1H-benzimidazol-5-yl}-benzenesulfonamide] | 8 nM | 99%
5 | CC(C)(O)c1ccccc1-c1ccc2[nH]c(C#Cc3cccc(C(F)(F)F)c3)nc2c1 [Cpd 294, 2-{2-[2-(3-trifluoromethyl-phenylethynyl)-1H-benzimidazol-5-yl]-phenyl}-propan-2-ol] | 9.1 nM | 101%
6 | Oc1cccc(-c2cc3nc(/C=C/c4ccc(C(F)(F)F)cc4)[nH]c3cc2F)c1 [Cpd 60, (E)-3-{6-fluoro-2-[2-(4-trifluoromethyl-phenyl)-vinyl]-1H-benzimidazol-5-yl}-phenol] | – | 7%
7 | NS(=O)(=O)c1ccccc1-c1ccc2[nH]c(CCc3c(F)cccc3F)nc2c1 [Cpd 386, 2-{2-[2-(2,6-difluoro-phenyl)-ethyl]-1H-benzimidazol-5-yl}-benzenesulfonamide] | 43 nM | 96%
8 | NS(=O)(=O)c1ccccc1-c1ccc2[nH]c(/C=C/c3cc(Br)ccc3F)nc2c1 [Cpd 379, (E)-2-{2-[2-(5-bromo-2-fluoro-phenyl)-vinyl]-1H-benzimidazol-5-yl}-benzenesulfonamide] | 40 nM | 99%
9 | NS(=O)(=O)c1ccccc1-c1ccc2[nH]c(/C=C/c3cccc(F)c3F)nc2c1 [Cpd 359, (E)-2-{2-[2-(2,3-difluoro-phenyl)-vinyl]-1H-benzimidazol-5-yl}-benzenesulfonamide] | 24 nM | 98%
10 | NC(=O)c1ccccc1-c1cc2nc(/C=C/c3ccc(C(F)(F)F)cc3)[nH]c2cc1F [Cpd 63, (E)-2-{6-fluoro-2-[2-(4-trifluoromethyl-phenyl)-vinyl]-1H-benzimidazol-5-yl}-benzamide] | 260 nM | 97%
11 | NS(=O)(=O)c1ccccc1-c1ccc2[nH]c(CCc3ccc(OC(F)(F)F)cc3)nc2c1 [Cpd 129, 2-{2-[2-(4-trifluoromethoxy-phenyl)-ethyl]-1H-benzimidazol-5-yl}-benzenesulfonamide] | 34 nM | 96%
12 | Oc1ccccc1-c1cc2nc(/C=C/c3ccc(C(F)(F)F)cc3)[nH]c2cc1F [Cpd 59, (E)-2-{6-fluoro-2-[2-(4-trifluoromethyl-phenyl)-vinyl]-1H-benzimidazol-5-yl}-phenol] | 440 nM | 80%
13 | CS(=O)(=O)c1cc(Cl)ccc1/C=C/c1nc2cc(-c3ccccc3S(N)(=O)=O)ccc2[nH]1 [Cpd 375, (E)-2-{2-[2-(4-chloro-2-methanesulfonyl-phenyl)-vinyl]-1H-benzimidazol-5-yl}-benzenesulfonamide] | 139 nM | 97%
14 | CC(C)(C)c1ccc(/C=C/c2nc3cc(-c4ccccc4O)c(C(F)(F)F)cc3[nH]2)cc1 [Cpd 48, (E)-2-{2-[2-(4-tert-butyl-phenyl)-vinyl]-6-trifluoromethyl-1H-benzimidazol-5-yl}-phenol] | – | 33%
15 | CNS(=O)(=O)c1ccccc1-c1ccc2[nH]c(/C=C/c3cccc(OC(F)(F)F)c3)nc2c1 [Cpd 344, (E)-N-methyl-2-{2-[2-(3-trifluoromethoxy-phenyl)-vinyl]-1H-benzimidazol-5-yl}-benzenesulfonamide] | 24 nM | 101%
16 | NS(=O)(=O)c1ccccc1-c1ccc2[nH]c(CCc3cccc(C(F)(F)F)c3F)nc2c1 [Cpd 405, 2-{2-[2-(2-fluoro-3-trifluoromethyl-phenyl)-ethyl]-1H-benzimidazol-5-yl}-benzenesulfonamide] | 20 nM | 95%

The next lines start with the values.

Row | IC50 | inhibition at 1 µM | SMILES
17 | – | 5% | CNS(=O)(=O)c1ccccc1-c1ccc2[nH]c(/C=C/c3ccc(NC(C)=O)cc3)nc2c1 [Cpd 452, (E)-N-(4-{2-[5-(2-methylsulfamoyl-phenyl)-1H-benzimidazol-2-yl]-vinyl}-phenyl)-acetamide]
18 | 9 nM | 100% | Cc1ccc(/C=C/c2nc3cc(-c4ccccc4S(N)(=O)=O)ccc3[nH]2)cc1 [Cpd 430, (E)-2-[2-(2-p-tolyl-vinyl)-1H-benzimidazol-5-yl]-benzenesulfonamide]
19 | – | 40% | NS(=O)(=O)c1ccc(F)cc1-c1ccc2[nH]c(/C=C/c3ccc(C(F)(F)F)cc3)nc2c1 [Cpd 441, (E)-4-fluoro-2-{2-[2-(4-trifluoromethyl-phenyl)-vinyl]-1H-benzimidazol-5-yl}-benzenesulfonamide]
20 | 35 nM | 97% | NS(=O)(=O)c1ccccc1-c1ccc2[nH]c(/C=C/c3cccc(Cl)c3F)nc2c1 [Cpd 431, (E)-2-{2-[2-(3-chloro-2-fluoro-phenyl)-vinyl]-1H-benzimidazol-5-yl}-benzenesulfonamide]
21 | 15 nM | 93% | NS(=O)(=O)c1ccccc1-c1ccc2[nH]c(CCc3ccc(F)cc3)nc2c1 [Cpd 420, 2-{2-[2-(4-fluoro-phenyl)-ethyl]-1H-benzimidazol-5-yl}-benzenesulfonamide]
22 | 76 nM | 97% | NS(=O)(=O)c1cc(C(F)(F)F)ccc1-c1ccc2[nH]c(/C=C/c3ccc(C(F)(F)F)cc3)nc2c1 [Cpd 446, (E)-5-trifluoromethyl-2-{2-[2-(4-trifluoromethyl-phenyl)-vinyl]-1H-benzimidazol-5-yl}-benzenesulfonamide]
23 | 156 nM | 91% | CS(=O)(=O)Nc1ccccc1-c1ccc2[nH]c(/C=C/c3ccc(OC(F)F)cc3)nc2c1 [Cpd 410, (E)-N-(2-{2-[2-(4-difluoromethoxy-phenyl)-vinyl]-1H-benzimidazol-5-yl}-phenyl)-methanesulfonamide]
24 | – | 12% | CC(C)(C)OC(=O)Nc1ccccc1-c1ccc2[nH]c(/C=C/c3ccc(C(F)(F)F)cc3)nc2c1 [Cpd 479, (E)-(2-{2-[2-(4-trifluoromethyl-phenyl)-vinyl]-1H-benzimidazol-5-yl}-phenyl)-carbamic acid tert-butyl ester]
25 | 17 nM | 99% | CC(=O)c1ccc(/C=C/c2nc3cc(-c4ccccc4C(C)(C)O)ccc3[nH]2)cc1 [Cpd 448, (E)-1-[4-(2-{5-[2-(1-hydroxy-1-methyl-ethyl)-phenyl]-1H-benzimidazol-2-yl}-vinyl)-phenyl]-ethanone]
